Source: ChEMBL document CHEMBL1201862, “PubChem BioAssay data set” (2004)
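Each compound was tested at five concentrations against cells in 96-well plates for 48 hours. GI50: concentration for 50% inhibition of growth.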 Active and inactive are the calls of the source. Cut-off read from the data, not from the text of the source: active = GI50 up to about 1.1 µM and inactive = higher.

Tests used:
Assay in all cases: NCI tumour cell line growth inhibition, 48 h
CAKI-1 = tested on: CAKI-1
RPMI-8226 = tested on: RPMI-8226
UACC-62 = tested on: UACC-62
OVCAR-3 = tested on: OVCAR-3
HT-29 = tested on: HT-29
KM12 = tested on: KM12
HCT-116 = tested on: HCT-116
SF-539 = tested on: SF-539
HOP-92 = tested on: HOP-92
NCI-H460 = tested on: NCI-H460
HCT-15 = tested on: HCT-15
DMS-273 = tested on: DMS-273
SK-MEL-2 = tested on: SK-MEL-2
HOP-62 = tested on: HOP-62
TK-10 = tested on: TK-10
BT-549 = tested on: BT-549
NCI-H522 = tested on: NCI-H522
T47D = tested on: T47D
MCF7 = tested on: MCF7
PC-3 = tested on: PC-3

Row | Compound | GI50 (CAKI-1) | GI50 (RPMI-8226) | GI50 (UACC-62) | GI50 (OVCAR-3) | GI50 (HT-29) | GI50 (KM12) | GI50 (HCT-116) | GI50 (SF-539) | GI50 (HOP-92) | GI50 (NCI-H460) | GI50 (HCT-15) [µM] | GI50 (DMS-273) | GI50 (SK-MEL-2) | GI50 (HOP-62) | GI50 (TK-10) | GI50 (BT-549) | GI50 (NCI-H522) | GI50 (T47D) | GI50 (MCF7) | GI50 (PC-3)
1 | CN/N=C(/c1nc2ccc([N+](=O)[O-])cc2nc1O)C(O)c1ccc(C(O)/C(=N\NC)c2nc3ccc([N+](=O)[O-])cc3nc2O)cc1 (stereo not drawn) | > 100 µM (inactive) | 68.1 µM (inactive) | 44.9 µM (inactive) | > 100 µM (inactive) | > 100 µM (inactive) | > 100 µM (inactive) | > 100 µM (inactive) | 42.6 µM (inactive) | > 100 µM (inactive) | 42.6 µM (inactive) | 29.5 | 31.4 µM (inactive) | 48 µM (inactive) | 42.2 µM (inactive) | > 100 µM (inactive) |  |  |  |  | 
2 | CN(C)/C=N/c1nc2c(ncn2C2OC(CO)C(O)C2O)c(=O)[nH]1 (stereo not drawn) | > 100 µM (inactive) | > 100 µM (inactive) | > 100 µM (inactive) | > 100 µM (inactive) | > 100 µM (inactive) | > 100 µM (inactive) | > 100 µM (inactive) | > 100 µM (inactive) | > 100 µM (inactive) | > 100 µM (inactive) | > 100 | > 100 µM (inactive) | > 100 µM (inactive) | > 100 µM (inactive) | > 100 µM (inactive) |  |  |  |  | 
3 | O=C1c2cc(-c3ccccc3)cnc2S(=O)(=O)N1c1ccc(Br)cc1 | 40.4 µM (inactive) | 21.1 µM (inactive) | 32.8 µM (inactive) | 47.1 µM (inactive) | > 100 µM (inactive) | 25.5 µM (inactive) | 71.9 µM (inactive) | 30.5 µM (inactive) | 27.1 µM (inactive) | 24.3 µM (inactive) | 34.7 |  | 96.2 µM (inactive) | 16.8 µM (inactive) | > 100 µM (inactive) | > 100 µM (inactive) | 14.8 µM (inactive) | 37.7 µM (inactive) | > 100 µM (inactive) | 34.4 µM (inactive)
4 | CCOC(=O)/C(C(=O)Nc1cccc(C(F)(F)F)c1)=C(/N)N1CCOCC1 | > 100 µM (inactive) | > 100 µM (inactive) | > 100 µM (inactive) | > 100 µM (inactive) | > 100 µM (inactive) | > 100 µM (inactive) | > 100 µM (inactive) | > 100 µM (inactive) | > 100 µM (inactive) | > 100 µM (inactive) | > 100 |  | > 100 µM (inactive) | > 100 µM (inactive) | > 100 µM (inactive) | > 100 µM (inactive) | > 100 µM (inactive) | > 100 µM (inactive) | > 100 µM (inactive) | > 100 µM (inactive)
5 | CC1OC(OC2C[C@](O)(C(=O)CBr)Cc3c(O)c4c(c(O)c32)C(=O)c2ccccc2C4=O)C(F)C(O)C1O (stereo partly drawn) | 2.71 µM (inactive) | 1.46 µM (inactive) | 10.8 µM (inactive) | 13.9 µM (inactive) | 12.1 µM (inactive) | 19.6 µM (inactive) | 5.83 µM (inactive) | 4.54 µM (inactive) | 4.21 µM (inactive) | 0.783 µM (active) | 5.86 |  | 29.6 µM (inactive) | 3.72 µM (inactive) | 20.3 µM (inactive) | 24.7 µM (inactive) | 6.18 µM (inactive) | 5.35 µM (inactive) | 1.19 µM (inactive) | 13.4 µM (inactive)
6 | CC(=O)OCC1OC(OC2CC3C(C)(C)C(=O)CC[C@]3(C)C3CC[C@]45C[C@]4(CCC5[C@@H](C)CC(O)C(O)C(C)(C)O)[C@]23C)C(O)C(O)C1O (stereo partly drawn) | 17.1 µM (inactive) | 3.56 µM (inactive) | 10.5 µM (inactive) | 12.7 µM (inactive) | 4.23 µM (inactive) | 6.43 µM (inactive) | 7.1 µM (inactive) | 15.3 µM (inactive) | 3.18 µM (inactive) | 13.6 µM (inactive) | 17.6 |  | 4.93 µM (inactive) | 19.3 µM (inactive) | 14.6 µM (inactive) | 12.9 µM (inactive) | 10.6 µM (inactive) | 5.68 µM (inactive) | 4.78 µM (inactive) | 9.82 µM (inactive)
7 | CCCCCCCCCCCCCCCCCc1cccc(OCOCCOC)c1C(=O)O | 19.1 µM (inactive) | 24.3 µM (inactive) | 17.7 µM (inactive) | 16.9 µM (inactive) | 17.1 µM (inactive) | 17.1 µM (inactive) | 19.4 µM (inactive) | 16.2 µM (inactive) | 18.9 µM (inactive) | 21.5 µM (inactive) | 19.3 |  | 19.5 µM (inactive) | 18.8 µM (inactive) | 18.9 µM (inactive) | 16.9 µM (inactive) | 14.9 µM (inactive) | 16.5 µM (inactive) | 21.7 µM (inactive) | 17.1 µM (inactive)
8 | N#CSCc1cccc(Nc2cc(=O)[nH]c(=O)[nH]2)c1 | > 100 µM (inactive) | 47.9 µM (inactive) | 26.7 µM (inactive) | 54.7 µM (inactive) | 37.2 µM (inactive) | 97.1 µM (inactive) | 40.6 µM (inactive) | 33 µM (inactive) | 14.8 µM (inactive) | > 100 µM (inactive) | 56.6 |  | > 100 µM (inactive) | > 100 µM (inactive) | > 100 µM (inactive) | 38 µM (inactive) | 39.7 µM (inactive) | > 100 µM (inactive) | 7.23 µM (inactive) | > 100 µM (inactive)
9 | CC1OC(OP(=O)(OCc2ccccc2)OCc2ccccc2)C(OC(=O)c2ccccc2)C(OC(=O)c2ccccc2)C1I (stereo not drawn) | 29.6 µM (inactive) | 19.6 µM (inactive) | 48.9 µM (inactive) | 46 µM (inactive) | 42.9 µM (inactive) | 35 µM (inactive) | 28.1 µM (inactive) |  |  | 34 µM (inactive) | 45.9 | 53 µM (inactive) | 23.8 µM (inactive) | > 100 µM (inactive) | > 100 µM (inactive) |  | 21.4 µM (inactive) |  |  | 
10 | c1ccc2c(c1)SC(=C1Sc3ccccc3S1)S2 | > 100 µM (inactive) |  | > 100 µM (inactive) | > 100 µM (inactive) | > 100 µM (inactive) |  |  |  | 61.7 µM (inactive) | 55.8 µM (inactive) | > 100 | > 100 µM (inactive) |  | > 100 µM (inactive) | > 100 µM (inactive) |  |  |  |  | 
11 | O=c1c(-c2nc3ccccc3c3ccccc3c2=O)nc2ccccc2c2ccccc12 | 38.9 µM (inactive) | 26.2 µM (inactive) | 30.2 µM (inactive) | 28.4 µM (inactive) | 43.5 µM (inactive) | 38.3 µM (inactive) | 23.8 µM (inactive) | 24.5 µM (inactive) | 37.1 µM (inactive) | 41.3 µM (inactive) | 32.7 |  | 27.4 µM (inactive) | 34.8 µM (inactive) | 48.4 µM (inactive) | 47.1 µM (inactive) | 37.1 µM (inactive) | 32.6 µM (inactive) | 38 µM (inactive) | 27.7 µM (inactive)
12 | O=C(/C=C/c1ccccc1F)c1ccc([N+](=O)[O-])cc1 | 15.5 µM (inactive) | 2 µM (inactive) | 22.9 µM (inactive) | 24.6 µM (inactive) | 9.44 µM (inactive) |  |  |  | 16.3 µM (inactive) | 30.8 µM (inactive) | 18.2 | 36.3 µM (inactive) |  | 32.6 µM (inactive) | 23.9 µM (inactive) |  |  |  |  | 
